Reference: patent US10660338B2, “Sporocidal disinfectant or sanitising composition” (priority 2014, dated 2020)

How the values were obtained:
[1] = Dye duration (lifetime before bleaching); format: physicochemical
Protocol: and wherein the colour indicator comprises a first non-mordant dye having a first colour and being bleachable after a first dye lifetime of 0.5 to 10 minutes in a test solution at 20° C. to 40° C. and pH8.0 to 8.5 containing 0.05 wt % to 0.15 wt % of the dye and 45 wt % to 55 wt % of sodium percarbonate;
a second non-mordant dye having a second colour different from the first colour and bleachable after a second dye lifetime of not less than 24 hours in the test solution; and
an optional third non-mordant dye having a third colour different from the first and second colours and bleachable after a third dye lifetime of not less than 36 hours in the test solution.

spores [2] = settings: background statement; cited from earlier work
spores [3] = assay: Sporocidal action of peracetic acid (general statements); format: cell-based

| SMILES | DURATION [1] | Concentration at which sporocidal (spores [2]) | Concentration sufficient to provide sporicidal action (spores [3]) |
| --- | --- | --- | --- |
| O=S(=O)(O)c1cc(S(=O)(=O)O)c2c(/N=N\c3ccc(S(=O)(=O)O)c4ccccc34)c(O)ccc2c1 [Acid Red 18] | 30 min | – | – |
| Cc1ccc(Nc2ccc(O)c3c2C(=O)c2ccccc2C3=O)c(S(=O)(=O)[O-])c1.[Na+] [Acid Violet 43] | 5 min | – | – |
| CC(=O)OO [Peracetic acid] | – | 4000 ppm | approximately 1000 ppm |
